Values joined by “and” are separate entries in the source; they are usually repeats but may differ in a detail not shown here. Equal entries are not always repeated. Toxic doses and inconclusive results are not listed. Rule as the data show it: active = T/C of 150% or more; inactive = T/C below 125%.
Tested on: L1210 leukemia ip in BDF1 mice, survival T/C
Assay: NCI In Vivo Anticancer Drug Screen. Data for tumor model L1210 Leukemia (intraperitoneal) in B6D2F1 (BDF1) mice
Details: endpoint: mean survival time, higher = longer survival
Procedure, shortened: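 Ratio derived from survival: compound-dosed mice over vehicle-dosed mice, all bearing a transplantable tumor.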

[1] = dose: 25.0 mg/kg/injection, schedule: Q01DX009 (ip), vehicle: saline with Tween-80
[2] = dose: 50.0 mg/kg/injection, schedule: Q01DX009 (ip), vehicle: saline with Tween-80
[3] = dose: 100.0 mg/kg/injection, schedule: Q01DX009 (ip), vehicle: saline with Tween-80
[4] = dose: 100.0 mg/kg/injection, schedule: Q04DX003 (ip), vehicle: saline
[5] = dose: 200.0 mg/kg/injection, schedule: Q01DX009 (ip), vehicle: saline with Tween-80
[6] = dose: 200.0 mg/kg/injection, schedule: Q04DX003 (ip), vehicle: saline
[7] = dose: 100.0 mg/kg/injection, schedule: Q01DX009 (ip), vehicle: Klucel (hydroxypropylcellulose) (HPC)
[8] = dose: 200.0 mg/kg/injection, schedule: Q01DX009 (ip), vehicle: Klucel (hydroxypropylcellulose) (HPC)
[9] = dose: 100.0 mg/kg/injection, schedule: Q04DX003 (ip), vehicle: Klucel (hydroxypropylcellulose) (HPC)
[10] = dose: 200.0 mg/kg/injection, schedule: Q04DX003 (ip), vehicle: Klucel (hydroxypropylcellulose) (HPC)
[11] = dose: 400.0 mg/kg/injection, schedule: Q01DX009 (ip), vehicle: Klucel (hydroxypropylcellulose) (HPC)
[12] = dose: 400.0 mg/kg/injection, schedule: Q04DX003 (ip), vehicle: Klucel (hydroxypropylcellulose) (HPC)
[13] = dose: 100.0 mg/kg/injection, schedule: Q04DX002 (ip), vehicle: Klucel (hydroxypropylcellulose) (HPC)
[14] = dose: 200.0 mg/kg/injection, schedule: Q04DX002 (ip), vehicle: Klucel (hydroxypropylcellulose) (HPC)
[15] = dose: 100.0 mg/kg/injection, schedule: Q01DX001 (ip), vehicle: saline
[16] = dose: 200.0 mg/kg/injection, schedule: Q01DX001 (ip), vehicle: saline
[17] = dose: 400.0 mg/kg/injection, schedule: Q01DX001 (ip), vehicle: saline
[18] = dose: 200.0 mg/kg/injection, schedule: Q04DX003 (ip), vehicle: saline with Tween-80
[19] = dose: 100.0 mg/kg/injection, schedule: Q04DX003 (ip), vehicle: saline with Tween-80
[20] = dose: 400.0 mg/kg/injection, schedule: Q04DX003 (ip), vehicle: saline with Tween-80
[21] = dose: 100.0 mg/kg/injection, schedule: Q01DX009 (ip), vehicle: saline
[22] = dose: 200.0 mg/kg/injection, schedule: Q01DX009 (ip), vehicle: saline
[23] = dose: 400.0 mg/kg/injection, schedule: Q01DX009 (ip), vehicle: saline
[24] = dose: 400.0 mg/kg/injection, schedule: Q04DX002 (ip), vehicle: Klucel (hydroxypropylcellulose) (HPC)
[25] = dose: 100.0 mg/kg/injection, schedule: Q01DX001 (ip), vehicle: carboxymethylcellulose (CMC)
[26] = dose: 200.0 mg/kg/injection, schedule: Q01DX001 (ip), vehicle: carboxymethylcellulose (CMC)
[27] = dose: 400.0 mg/kg/injection, schedule: Q01DX001 (ip), vehicle: carboxymethylcellulose (CMC)
[28] = dose: 400.0 mg/kg/injection, schedule: Q04DX003 (ip), vehicle: saline

Measured: T/C

CCC(C)(CC)OC(N)=O
inactive: dose: 12.5 mg/kg/injection, schedule: Q01DX009 (ip), vehicle: saline with Tween-80 100 % of control | [1] 102 % of control | dose: 25.0 mg/kg/injection, schedule: Q04DX003 (ip), vehicle: saline 100 % of control | [2] 94 % of control | dose: 50.0 mg/kg/injection, schedule: Q04DX003 (ip), vehicle: saline 100 % of control | [3] 105 % of control | [4] 102 % of control | [5] 93 % of control | [6] 96 % of control

Cc1cc(C)c(CC(C)(CO)CO)cc1CC(C)(CO)CO
inactive: [7] 93 % of control | [8] 87 % of control | dose: 300.0 mg/kg/injection, schedule: Q01DX009 (ip), vehicle: Klucel (hydroxypropylcellulose) (HPC) 106 % of control

NC(=O)c1ccccc1C(N)=O
inactive: [7] 97 % of control | [9] 100 % of control | [8] 98 % of control | [10] 102 % of control | [11] 93 % of control | [12] 100 % of control

NNc1ccc(Br)cc1
inactive: [13] 102 % of control | [14] 115 % of control

COc1cc(Cc2nccc3cc(OC)c(OC)cc23)c(C(C)=O)c(OC)c1
inactive: dose: 5.0 mg/kg/injection, schedule: Q01DX009 (ip), vehicle: saline 113 % of control | dose: 10.0 mg/kg/injection, schedule: Q01DX009 (ip), vehicle: saline 118 % of control | dose: 20.0 mg/kg/injection, schedule: Q01DX009 (ip), vehicle: saline 109 % of control | dose: 40.0 mg/kg/injection, schedule: Q01DX009 (ip), vehicle: saline 99 % of control | dose: 80.0 mg/kg/injection, schedule: Q01DX009 (ip), vehicle: saline 95 % of control

CC[S][Pb]([c]1ccccc1)([c]1ccccc1)[c]1ccccc1
inactive: dose: 12.5 mg/kg/injection, schedule: Q04DX002 (ip), vehicle: Klucel (hydroxypropylcellulose) (HPC) 103 % of control

N#CCc1ccc(N=Nc2c(N)nc(N)[nH]c2=O)cc1
inactive: [15] 98 % of control | [16] 96 % of control | [17] 96 % of control

C(=N\N1CCN(/N=C/c2ccccc2)C1c1ccccc1)/c1ccccc1
inactive: [9] 106 % of control | [10] 94 % of control | [12] 101 % of control

Cc1cc(C)c(C(=O)c2no[n+]([O-])c2C(=O)c2c(C)cc(C)c(Br)c2C)c(C)c1Br
inactive: [18] 87 % of control

COc1cc(/C=N/O)ccc1O
inactive: [2] 97 % of control and 105 % of control | [3] 97 % of control and 102 % of control | [19] 96 % of control | [5] 107 % of control and 112 % of control | [18] 87 % of control | [20] 91 % of control

COc1cccc(S(C)(=O)=O)c1
inactive: dose: 75.0 mg/kg/injection, schedule: Q01DX009 (ip), vehicle: saline 105 % of control | dose: 75.0 mg/kg/injection, schedule: Q04DX003 (ip), vehicle: saline 101 % of control | dose: 150.0 mg/kg/injection, schedule: Q01DX009 (ip), vehicle: saline 97 % of control | dose: 150.0 mg/kg/injection, schedule: Q04DX003 (ip), vehicle: saline 101 % of control | dose: 300.0 mg/kg/injection, schedule: Q01DX009 (ip), vehicle: saline 92 % of control | dose: 300.0 mg/kg/injection, schedule: Q04DX003 (ip), vehicle: saline 100 % of control

CSc1ccc(NC(=O)Oc2cc(C)c(Cl)cc2C(C)C)cc1
inactive: [7] 94 % of control | [8] 96 % of control | [11] 89 % of control

COC(=O)C1CC2(Br)C(Br)=C(Br)C1(Br)C2(Br)Br (stereo not drawn)
inactive: [15] 88 % of control | [21] 102 % of control | [16] 100 % of control | [22] 98 % of control | [17] 88 % of control | [23] 91 % of control

O=S(=O)(c1ccccc1)S(=O)(=O)c1ccccc1
inactive: [7] 107 % of control | [13] 105 % of control | [8] 88 % of control | [14] 86 % of control | [11] 96 % of control | [24] 90 % of control

O=C(O)C(Br)C(Br)C(=O)Nc1cccc2ccccc12 (stereo not drawn)
inactive: [1] 97 % of control | [2] 96 % of control | [3] 96 % of control and 98 % of control

O=C(/C=C\c1ccc(O)c(O)c1)OC1C(O)CC(OC(=O)/C=C/c2ccc(O)c(O)c2)(C(=O)O)CC1O (stereo not drawn)
inactive: [21] 105 % of control | [22] 91 % of control | [23] 94 % of control

Nc1c(Br)cc(Br)c2[nH]c(=O)c3ccccc3c12
inactive: [25] 104 % of control | [26] 96 % of control | [27] 98 % of control

CC(=O)c1c(O)c(Br)c(C)oc1=O
inactive: dose: 6.25 mg/kg/injection, schedule: Q01DX009 (ip), vehicle: Klucel (hydroxypropylcellulose) (HPC) 100 % of control | dose: 12.5 mg/kg/injection, schedule: Q01DX009 (ip), vehicle: Klucel (hydroxypropylcellulose) (HPC) 96 % of control | dose: 25.0 mg/kg/injection, schedule: Q01DX009 (ip), vehicle: Klucel (hydroxypropylcellulose) (HPC) 93 % of control | dose: 50.0 mg/kg/injection, schedule: Q01DX009 (ip), vehicle: Klucel (hydroxypropylcellulose) (HPC) 89 % of control

CC12CCC3(CC1CC/C(=C\c1ccco1)C2=O)OCCO3 (stereo not drawn)
inactive: [15] 101 % of control | [4] 108 % of control | [16] 92 % of control | [6] 95 % of control | [17] 97 % of control | [28] 98 % of control

CN(CCC#N)C(=O)Nc1ccc(Cl)c(Cl)c1
inactive: dose: 100.0 mg/kg/injection, schedule: Q04DX002 (ip), vehicle: other 109 % of control | dose: 200.0 mg/kg/injection, schedule: Q04DX002 (ip), vehicle: other 102 % of control | dose: 400.0 mg/kg/injection, schedule: Q04DX002 (ip), vehicle: other 102 % of control

CC([NH-])C(C)[NH-].CC([NH-])C(C)[NH-].[Cl][Co][Cl] (stereo not drawn)
inactive: dose: 50.0 mg/kg/injection, schedule: Q04DX002 (ip), vehicle: saline 102 % of control | dose: 100.0 mg/kg/injection, schedule: Q04DX002 (ip), vehicle: saline 112 % of control | dose: 200.0 mg/kg/injection, schedule: Q04DX002 (ip), vehicle: saline 122 % of control

CC1(C)Cc2cccc(Br)c2O1
inactive: dose: 100.0 mg/kg/injection, schedule: Q01DX001 (ip), vehicle: other 98 % of control | dose: 200.0 mg/kg/injection, schedule: Q01DX001 (ip), vehicle: other 103 % of control | dose: 400.0 mg/kg/injection, schedule: Q01DX001 (ip), vehicle: other 97 % of control

COC(=N)c1ccc(C)c(I)c1
inactive: [13] 91 % of control | [14] 98 % of control | [24] 94 % of control

CC(C)C1c2ccccc2C(=O)C1C(N)=O (stereo not drawn)
inactive: [25] 90 % of control | [26] 100 % of control | [27] 93 % of control

OC(c1ccccc1)(c1ccccc1)C1CCc2cc3ccccc3nc21 (stereo not drawn)
inactive: [2] 95 % of control | [3] 98 % of control | [5] 95 % of control

O=C(O)C(O)COc1ccc(Cl)cc1Cl (stereo not drawn)
inactive: [21] 92 % of control | [4] 93 % of control | [22] 107 % of control | [23] 102 % of control | [28] 102 % of control

c1ccc(C2=C(c3ccccc3)CSSC2)cc1
inactive: dose: 50.0 mg/kg/injection, schedule: Q04DX003 (ip), vehicle: Klucel (hydroxypropylcellulose) (HPC) 100 % of control | [9] 100 % of control | [10] 100 % of control

CCCC(CC)NC(N)=O (stereo not drawn)
inactive: [19] 107 % of control | [18] 95 % of control | [20] 109 % of control

— PubChem BioAssay AID248 (DTP/NCI, 2004)
